In patent US20260256790A1, “DEBIO-0123 IN COMBINATION WITH TEMOZOLOMIDE AND RADIOTHERAPY FOR USE IN TREATING GLIOMA” (Debiopharm International S.A., priority 2023, published 2026):

Columns and labels:
in vivo = assay: in vivo; set-up: species or system cynomolgus monkeys; conditions: female, cynomolgus monkey, po
Description: Compound of formula (I) was orally given to 3 female cynomolgus monkeys by gavage once a day for 91 days. The volume of administration was 5 mL/kg, and the vehicle was an aqueous solution of 0.5% (w/v) methylcellulose (cps 400) and 1% (w/v) Tween 80. The Compound of formula (I) dose was 10 mg/kg; this dose level was assessed in this study to be the […] no adverse effect level (NOAEL) based on general toxicology evaluation. The animals were necropsied 24 hours after the last dose after an overnight period without food. A sample from brain tissue (left forebrain) was collected from each animal, snap frozen in liquid nitrogen. and stored frozen at <−50° C. Blood samples were taken from the femoral vein into tubes containing K2EDTA, fully inverted approximately 10 times, and placed on crushed wet ice until centrifugation at 2300 g for 10 minutes at approximately 4° C. The resultant plasma was separated, transferred into polypropylene tubes, and frozen at <−50° C. Tissue and plasma samples were transported frozen on dry ice to the respective sites of analysis.

LN18 GBM cell line = assay: Colony formation with radiotherapy, LN18; format: cell-based; conditions: 0.1 μM to 5.0 μM, irradiated at 1, 2 and 4 Gy, p<0.0001
Description: GBM tumor cells (T98G, LN18, SNB-19 and U251) were grown as an adherent monolayer at 37° C. in a humidified atmosphere (5% CO2, 95% air). For experimental use, tumor cells were detached from culture flasks by a 5-minute treatment with trypsin-versene, in Hanks' medium without calcium or magnesium and neutralized by addition of complete culture medium. Cells were counted and viability assessed using a 0.25% trypan blue exclusion assay. All cell lines were appropriately seeded following the conditions for monolayer colony formation in 6-well plates (Ref #152795, Nunc, Dutscher) in 1.9 ml of cell culture medium, at 3 densities for evaluation of a proclonogenic effect. […]
Treatments were performed at 24 hours (D1) after seeding by addition of ×20 concentrated compound or vehicle solutions, to obtain final concentrations of 0.1 μM to 5.0 μM of Compound of formula (I) [referred to as CoF (I) in FIG. 3]. […] After 14 days of incubation, colonies were counted after being stained through incubation with 500 μl of a solution of water containing 0.05% (w/v) of methylene blue (Ref. M4159, Sigma) for 2 hours. Colonies were counted using a colony counter pen (Ref #045855, Dutscher, Brumath, France). The Surviving Fraction was calculated for each condition using the equations described below and plotted on a semi-logarithmic graph using the Linear-Quadratic model. […]

With Cc1cc(Nc2ncc3c(n2)N(C)CN(c2c(Cl)cccc2Cl)C3=O)ccc1C1CCN(C)CC1 [Compound of formula (I)] as the compound, how does the NOAEL at 91 days (in vivo) read?
Its NOAEL at 91 days is 10 mg/kg.

And the “Effect on radiotherapy (surviving fraction, colony formation)” value (LN18 GBM cell line)?
The value was “significantly increased effect of radiotherapy”.
